From patent US20250313533A1, “QUINOLINE CARBOXYLIC ACID ESTER COMPOUND AND PREPARATION METHOD AND USE THEREOF” (priority 2019, published 2025)

Key:
[1] = test system: indoor potted cucumber seedlings; assay: Effect of improving growth and development of crops; type: in vivo; parameters: Rate of growth rate increase (%): concentration or dose not given beside the values; conditions: versus blank control; for Rate of chlorophyll content increase (%) / Rate of leaf area increase (%): 14 days after application; for Rate of growth rate increase (%): plant height 14 days after application; for Rate of leaf area increase (%): second leaf
How it was run: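 Readouts: rate of increase in height growth, leaf area and SPAD chlorophyll content. Measurements were made before compound application and again 14 days afterwards, with leaf area computed from second-leaf dimensions.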

[2] = test system: pathogenic bacteria causing bacterial wilt in tobacco; assay: whole plant or invertebrate; type: cell-based, ralstonia; conditions: read-out: inhibitory rate
[3] = test system: stem rot in sweet potatoes; assay: whole plant or invertebrate; conditions: read-out: efficacy against stem rot in sweet potatoes
[4] = test system: pathogenic bacteria causing black shank in potatoes; assay: In vitro bactericidal activity, black shank in potatoes; type: cell-based; conditions: read-out: inhibitory rate; for inhibition at 1 ppm: dosage 1 ppm; for inhibition at 5 ppm: dosage 5 ppm
bacterial blight in rice = assay: whole plant or invertebrate; conditions: Oryza sativa, read-out: efficacy against bacterial blight in rice
[5] = test system: pathogenic bacteria causing bacterial wilt in cassava; assay: organism not typed; type: cell-based; conditions: read-out: inhibitory rate
[6] = test system: pathogenic bacteria causing bacterial blight in rice; assay: whole plant or invertebrate; type: cell-based, xanthomonas; conditions: read-out: inhibitory rate
[7] = test system: pathogenic bacteria causing black rot in Chinese cabbages; assay: In vitro bactericidal activity, black rot in Chinese cabbages; type: cell-based, xanthomonas; conditions: Xanthomonas, read-out: inhibitory rate; for inhibition at 1 ppm: dosage 1 ppm; for inhibition at 5 ppm: dosage 5 ppm
black shank in potatoes = assay: Living crops in vivo protective activity, potatoes (root irrigation); conditions: Solanum tuberosum, read-out: efficacy against black shank in potatoes; for pest or weed control at 5 ppm: dosage 5 ppm; for pest or weed control at 10 ppm: dosage 10 ppm
Method: Root irrigation was carried out on the potatoes for tests according to the designed concentration of the agents. The dosage for each plant was 200 mL and was kept consistent (also for the control). The black shank bacteria were inoculated on the second day after the application. The results were investigated according to the disease condition.

[8] = test system: bacterial wilt in tobacco; assay: whole plant or invertebrate; conditions: Nicotiana tabacum, read-out: efficacy against bacterial wilt in tobacco
[9] = test system: soft rot in Chinese cabbages; assay: whole plant or invertebrate; conditions: 48 h, read-out: efficacy against soft rot in Chinese cabbages
cucumber seedlings = assay: Safety for plant growth after application; type: in vivo; conditions: dosage 200 ppm
How it was run: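 Potted cucumber seedlings grown indoors; read-outs: plant-height growth rate, chlorophyll content, leaf area.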

[10] = test system: pathogenic bacteria causing fruit blotch in watermelons; assay: In vitro bactericidal activity, fruit blotch in watermelons; type: cell-based, acidovorax; conditions: read-out: inhibitory rate; for inhibition at 1 ppm: dosage 1 ppm; for inhibition at 5 ppm: dosage 5 ppm
[11] = test system: pathogenic bacteria causing fire blight in pears; assay: In vitro bactericidal activity, fire blight in pears; type: cell-based, erwinia; conditions: Erwinia, read-out: inhibitory rate; for inhibition at 1 ppm: dosage 1 ppm; for inhibition at 5 ppm: dosage 5 ppm
[12] = test system: pathogenic bacteria causing bacterial angular leaf spot in cucumbers; assay: In vitro bactericidal activity, bacterial angular leaf spot in cucumbers; type: cell-based, pseudomonas; conditions: read-out: inhibitory rate; for inhibition at 1 ppm: dosage 1 ppm; for inhibition at 5 ppm: dosage 5 ppm
[13] = test system: fruit blotch in watermelons; assay: whole plant or invertebrate; conditions: read-out: efficacy against fruit blotch in watermelons
[14] = test system: pathogenic bacteria causing stem rot in sweet potatoes; assay: In vitro bactericidal activity, stem rot in sweet potatoes; type: cell-based, dikia; conditions: read-out: inhibitory rate; for inhibition at 1 ppm: dosage 1 ppm; for inhibition at 5 ppm: dosage 5 ppm

SMILES | Rate of chlorophyll content increase (%) [1] | Rate of growth rate increase (%) [1] | Rate of leaf area increase (%) [1] | inhibition at 1 ppm [2] | inhibition at 5 ppm [2] | pest or weed control at 5 ppm [3] | pest or weed control at 10 ppm [3] | inhibition at 1 ppm [4] | inhibition at 5 ppm [4] | pest or weed control at 5 ppm (bacterial blight in rice) | pest or weed control at 10 ppm (bacterial blight in rice) | inhibition at 1 ppm [5] | inhibition at 5 ppm [5] | inhibition at 1 ppm [6] | inhibition at 5 ppm [6] | inhibition at 1 ppm [7] | inhibition at 5 ppm [7] | pest or weed control at 5 ppm (black shank in potatoes) | pest or weed control at 10 ppm (black shank in potatoes) | pest or weed control at 5 ppm [8] | other results
CCNc1cc2c(cc1F)c(=O)c(C(=O)OCCO)cn2C1CC1 [Compound 407] | 15% | 13% | 11% | ≥ 90% | ≥ 90% | ≥ 90% | ≥ 90% | ≥ 90% | ≥ 90% | ≥ 90% | ≥ 90% | ≥ 90% | ≥ 90% | ≥ 90% | ≥ 90% | ≥ 90% | ≥ 90% | ≥ 90% | ≥ 90% | ≥ 90% | pest or weed control at 10 ppm [8]: ≥ 90%; pest or weed control at 5 ppm [9]: ≥ 90%; pest or weed control at 10 ppm [9]: ≥ 90%; safety for plant growth (discoloration, necrosis, wilt, malformation) (cucumber seedlings): safe for plant growth; inhibition at 1 ppm [10]: ≥ 90%; inhibition at 5 ppm [10]: ≥ 90%; inhibition at 1 ppm [11]: ≥ 90%; inhibition at 5 ppm [11]: ≥ 90%; inhibition at 1 ppm [12]: ≥ 90%; inhibition at 5 ppm [12]: ≥ 90%; pest or weed control at 5 ppm [13]: ≥ 90%; pest or weed control at 10 ppm [13]: ≥ 90%; inhibition at 1 ppm [14]: ≥ 90%; inhibition at 5 ppm [14]: ≥ 90%
CCOCCOC(=O)c1cn(C2CC2)c2cc(OC)c(F)cc2c1=O [Compound 326] | 15% | 13% | 15% | ≥ 90% | ≥ 90% | ≥ 90% | ≥ 90% | ≥ 90% | ≥ 90% | ≥ 90% | ≥ 90% | ≥ 90% | ≥ 90% | ≥ 90% | ≥ 90% | ≥ 90% | ≥ 90% | ≥ 90% | ≥ 90% | ≥ 90% | pest or weed control at 10 ppm [8]: ≥ 90%; pest or weed control at 5 ppm [9]: ≥ 90%; pest or weed control at 10 ppm [9]: ≥ 90%; safety for plant growth (discoloration, necrosis, wilt, malformation) (cucumber seedlings): safe for plant growth; inhibition at 1 ppm [10]: ≥ 90%; inhibition at 5 ppm [10]: ≥ 90%; inhibition at 1 ppm [11]: ≥ 90%; inhibition at 5 ppm [11]: ≥ 90%; inhibition at 1 ppm [12]: ≥ 90%; inhibition at 5 ppm [12]: ≥ 90%; pest or weed control at 5 ppm [13]: ≥ 90%; pest or weed control at 10 ppm [13]: ≥ 90%; inhibition at 1 ppm [14]: ≥ 90%; inhibition at 5 ppm [14]: ≥ 90%
CCOCCOC(=O)c1cn(C2CC2)c2cc(OCC(F)(F)F)c(F)cc2c1=O [Compound 335] | 16% | 12% | 16% | ≥ 90% | ≥ 90% | ≥ 90% | ≥ 90% | ≥ 90% | ≥ 90% | ≥ 90% | ≥ 90% | ≥ 90% | ≥ 90% | ≥ 90% | ≥ 90% | ≥ 90% | ≥ 90% | ≥ 90% | ≥ 90% | ≥ 90% | pest or weed control at 10 ppm [8]: ≥ 90%; pest or weed control at 5 ppm [9]: ≥ 90%; pest or weed control at 10 ppm [9]: ≥ 90%; safety for plant growth (discoloration, necrosis, wilt, malformation) (cucumber seedlings): safe for plant growth; inhibition at 1 ppm [10]: ≥ 90%; inhibition at 5 ppm [10]: ≥ 90%; inhibition at 1 ppm [11]: ≥ 90%; inhibition at 5 ppm [11]: ≥ 90%; inhibition at 1 ppm [12]: ≥ 90%; inhibition at 5 ppm [12]: ≥ 90%; pest or weed control at 5 ppm [13]: ≥ 90%; pest or weed control at 10 ppm [13]: ≥ 90%; inhibition at 1 ppm [14]: ≥ 90%; inhibition at 5 ppm [14]: ≥ 90%
COCCCCOC(=O)c1cn(C2CC2)c2cc(Cl)c(F)cc2c1=O [Compound 178] | 15% | 9% | 9% | ≥ 90% | ≥ 90% | ≥ 90% | ≥ 90% | ≥ 80% | ≥ 90% | ≥ 90% | ≥ 90% | ≥ 90% | ≥ 90% | ≥ 90% | ≥ 90% | ≥ 90% | ≥ 90% | ≥ 80% | ≥ 90% | ≥ 90% | pest or weed control at 10 ppm [8]: ≥ 90%; pest or weed control at 5 ppm [9]: ≥ 90%; pest or weed control at 10 ppm [9]: ≥ 90%; safety for plant growth (discoloration, necrosis, wilt, malformation) (cucumber seedlings): safe for plant growth; inhibition at 1 ppm [10]: ≥ 90%; inhibition at 5 ppm [10]: ≥ 90%; inhibition at 1 ppm [11]: ≥ 90%; inhibition at 5 ppm [11]: ≥ 90%; inhibition at 1 ppm [12]: ≥ 90%; inhibition at 5 ppm [12]: ≥ 90%; pest or weed control at 5 ppm [13]: ≥ 90%; pest or weed control at 10 ppm [13]: ≥ 90%; inhibition at 1 ppm [14]: ≥ 90%; inhibition at 5 ppm [14]: ≥ 90%
